Experimental data from article PMC4685510, “A Cell Biologist’s Field Guide to Aurora Kinase Inhibitors” (Frontiers in Oncology, 2015).
Like-named read-outs stand apart in the source and are kept apart here.

Experiments:
Test in all cases: biochemical
Type in all cases: biochemical
[1] = target: 363 human kinases (including Aurora A/B/C) (Homo sapiens, UniProt O94921); conditions: CDK14/cyclin Y (PFTK1), [ATP] 10 µM; for remaining activity at 0.1 µM: 100 nM; for remaining activity at 0.1 µM / remaining activity at 0.5 µM: read-out: % Enzyme Activity (relative to DMSO controls)
Source text: (§1) However, the Aurora A/B selectivity ratios derived from our in vitro and in vivo data can be compared to prioritize inhibitors.

[2] = target: 363 human kinases (including Aurora A/B/C) (Homo sapiens, UniProt Q06187); conditions: BTK, [ATP] 50 µM; for remaining activity at 0.1 µM: 100 nM; for remaining activity at 0.1 µM / remaining activity at 0.5 µM: read-out: % Enzyme Activity (relative to DMSO controls)
Source text: as §1

[3] = target: 363 human kinases (including Aurora A/B/C) (Homo sapiens, UniProt P05129); conditions: PKCg; for remaining activity at 0.1 µM: 100 nM; for remaining activity at 0.1 µM / remaining activity at 0.5 µM: read-out: % Enzyme Activity (relative to DMSO controls)
Source text: as §1

[4] = target: 363 human kinases (including Aurora A/B/C) (Homo sapiens, UniProt Q13464); conditions: ROCK1; for remaining activity at 0.1 µM: 100 nM; for remaining activity at 0.1 µM / remaining activity at 0.5 µM: read-out: % Enzyme Activity (relative to DMSO controls)
Source text: as §1

[5] = target: 363 human kinases (including Aurora A/B/C) (Homo sapiens, UniProt P37173); conditions: TGFBR2; for remaining activity at 0.1 µM: 100 nM; for remaining activity at 0.1 µM / remaining activity at 0.5 µM: read-out: % Enzyme Activity (relative to DMSO controls)
Source text: as §1

[6] = target: T1, 363 human kinases (including Aurora A/B/C) (Homo sapiens, UniProt O43781); conditions: DYRK3, [ATP] 5 µM; for remaining activity at 0.1 µM: 100 nM; for remaining activity at 0.1 µM / remaining activity at 0.5 µM: read-out: % Enzyme Activity (relative to DMSO controls)
T1 sequence (O43781 1-588): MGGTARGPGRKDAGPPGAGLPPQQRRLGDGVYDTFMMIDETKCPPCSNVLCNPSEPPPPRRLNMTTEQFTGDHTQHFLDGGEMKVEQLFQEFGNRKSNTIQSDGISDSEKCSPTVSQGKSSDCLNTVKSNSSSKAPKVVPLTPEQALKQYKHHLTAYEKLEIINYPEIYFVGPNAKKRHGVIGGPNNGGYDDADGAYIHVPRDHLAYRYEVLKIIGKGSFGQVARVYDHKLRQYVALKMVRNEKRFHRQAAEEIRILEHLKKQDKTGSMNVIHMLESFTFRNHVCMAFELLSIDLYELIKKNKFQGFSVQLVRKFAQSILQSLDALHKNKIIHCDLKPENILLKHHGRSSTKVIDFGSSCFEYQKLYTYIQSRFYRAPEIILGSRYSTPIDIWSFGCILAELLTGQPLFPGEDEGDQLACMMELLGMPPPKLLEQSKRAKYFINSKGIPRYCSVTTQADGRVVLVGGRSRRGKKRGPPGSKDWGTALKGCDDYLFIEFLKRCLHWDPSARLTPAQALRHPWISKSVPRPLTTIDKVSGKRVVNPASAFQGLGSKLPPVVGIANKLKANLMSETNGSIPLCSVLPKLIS
Source text: as §1

[7] = target: 363 human kinases (including Aurora A/B/C) (Homo sapiens, UniProt Q13164); conditions: ERK5/MAPK7, [ATP] 5 µM; for remaining activity at 0.1 µM: 100 nM; for remaining activity at 0.1 µM / remaining activity at 0.5 µM: read-out: % Enzyme Activity (relative to DMSO controls)
Source text: as §1

[8] = target: 363 human kinases (including Aurora A/B/C) (Homo sapiens, UniProt O75460); conditions: ERN1/IRE1, [ATP] 30 µM; for remaining activity at 0.1 µM: 100 nM; for remaining activity at 0.1 µM / remaining activity at 0.5 µM: read-out: % Enzyme Activity (relative to DMSO controls)
Source text: as §1

[9] = target: T2, 363 human kinases (including Aurora A/B/C) (Homo sapiens, UniProt O14733); conditions: MKK7; for remaining activity at 0.1 µM: 100 nM; for remaining activity at 0.1 µM / remaining activity at 0.5 µM: read-out: % Enzyme Activity (relative to DMSO controls)
T2 sequence (O14733 1-419): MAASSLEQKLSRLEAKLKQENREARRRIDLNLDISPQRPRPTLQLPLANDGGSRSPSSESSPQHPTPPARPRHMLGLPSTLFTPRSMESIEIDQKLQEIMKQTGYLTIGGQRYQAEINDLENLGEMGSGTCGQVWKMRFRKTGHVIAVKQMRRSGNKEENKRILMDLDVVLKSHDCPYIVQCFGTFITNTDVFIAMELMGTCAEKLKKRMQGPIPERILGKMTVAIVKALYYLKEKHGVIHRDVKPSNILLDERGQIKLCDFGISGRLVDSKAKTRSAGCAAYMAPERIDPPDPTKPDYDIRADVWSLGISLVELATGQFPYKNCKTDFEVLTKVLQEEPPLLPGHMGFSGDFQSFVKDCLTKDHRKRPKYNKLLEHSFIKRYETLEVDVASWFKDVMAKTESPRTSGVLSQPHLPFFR
Source text: as §1

[10] = target: 363 human kinases (including Aurora A/B/C) (Homo sapiens, UniProt Q9BUB5); conditions: MNK1; for remaining activity at 0.1 µM: 100 nM; for remaining activity at 0.1 µM / remaining activity at 0.5 µM: read-out: % Enzyme Activity (relative to DMSO controls)
Source text: as §1

[11] = target: 363 human kinases (including Aurora A/B/C) (Homo sapiens, UniProt P17612); conditions: PKA; for remaining activity at 0.1 µM: 100 nM; for remaining activity at 0.1 µM / remaining activity at 0.5 µM: read-out: % Enzyme Activity (relative to DMSO controls)
Source text: as §1

[12] = target: 363 human kinases (including Aurora A/B/C) (Homo sapiens, UniProt P43250); conditions: GRK6; for remaining activity at 0.1 µM: 100 nM; for remaining activity at 0.1 µM / remaining activity at 0.5 µM: read-out: % Enzyme Activity (relative to DMSO controls)
Source text: as §1

[13] = target: T3, 363 human kinases (including Aurora A/B/C) (Homo sapiens, UniProt Q8NG66); conditions: NEK11; for remaining activity at 0.1 µM: 100 nM; for remaining activity at 0.1 µM / remaining activity at 0.5 µM: read-out: % Enzyme Activity (relative to DMSO controls)
T3 sequence (Q8NG66 1-645): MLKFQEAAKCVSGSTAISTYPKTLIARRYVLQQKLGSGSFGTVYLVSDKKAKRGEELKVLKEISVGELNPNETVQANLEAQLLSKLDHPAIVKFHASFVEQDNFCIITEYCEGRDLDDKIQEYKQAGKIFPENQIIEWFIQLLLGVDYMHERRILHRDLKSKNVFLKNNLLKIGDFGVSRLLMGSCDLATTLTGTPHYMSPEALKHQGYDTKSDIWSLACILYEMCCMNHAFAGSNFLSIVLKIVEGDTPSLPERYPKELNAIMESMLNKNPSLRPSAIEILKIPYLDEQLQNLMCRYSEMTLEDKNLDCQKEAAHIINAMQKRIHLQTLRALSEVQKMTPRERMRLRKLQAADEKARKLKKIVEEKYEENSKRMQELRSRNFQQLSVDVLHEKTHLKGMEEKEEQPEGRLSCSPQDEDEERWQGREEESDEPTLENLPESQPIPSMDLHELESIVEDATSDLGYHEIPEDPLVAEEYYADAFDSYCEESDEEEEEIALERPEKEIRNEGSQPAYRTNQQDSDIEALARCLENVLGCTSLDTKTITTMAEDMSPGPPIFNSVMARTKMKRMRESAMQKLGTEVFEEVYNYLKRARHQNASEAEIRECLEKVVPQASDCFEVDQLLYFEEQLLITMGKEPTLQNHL
Source text: as §1

[14] = target: 363 human kinases (including Aurora A/B/C) (Homo sapiens, UniProt P11362); conditions: for remaining activity at 0.1 µM / remaining activity at 0.5 µM: read-out: % Enzyme Activity (relative to DMSO controls)
Chain of 363 human kinases (including Aurora A/B/C) (Homo sapiens, UniProt P11362) (P11362 22-822): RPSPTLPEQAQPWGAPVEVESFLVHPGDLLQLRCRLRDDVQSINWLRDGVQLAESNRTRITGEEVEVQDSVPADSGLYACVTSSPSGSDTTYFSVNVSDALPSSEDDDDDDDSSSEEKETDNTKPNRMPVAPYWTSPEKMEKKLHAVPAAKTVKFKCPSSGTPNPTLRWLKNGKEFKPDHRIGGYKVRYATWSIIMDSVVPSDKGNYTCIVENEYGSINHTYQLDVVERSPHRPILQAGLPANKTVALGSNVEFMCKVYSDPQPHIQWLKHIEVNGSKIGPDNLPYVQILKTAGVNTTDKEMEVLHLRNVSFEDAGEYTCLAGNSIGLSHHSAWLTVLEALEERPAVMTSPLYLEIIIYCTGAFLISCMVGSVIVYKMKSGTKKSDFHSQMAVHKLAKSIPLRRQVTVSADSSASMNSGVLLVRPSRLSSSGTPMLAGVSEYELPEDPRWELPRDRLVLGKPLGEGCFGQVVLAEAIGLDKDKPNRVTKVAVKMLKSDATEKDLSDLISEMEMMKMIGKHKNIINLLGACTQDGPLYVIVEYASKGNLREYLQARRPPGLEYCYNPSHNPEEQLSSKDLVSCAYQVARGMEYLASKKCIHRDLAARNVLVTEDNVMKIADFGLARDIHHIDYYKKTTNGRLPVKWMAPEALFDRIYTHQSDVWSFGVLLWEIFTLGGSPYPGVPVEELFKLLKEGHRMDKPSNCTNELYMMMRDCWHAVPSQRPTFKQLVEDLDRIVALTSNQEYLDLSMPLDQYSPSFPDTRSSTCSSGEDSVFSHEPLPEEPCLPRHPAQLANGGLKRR
Source text: as §1

Chain of 363 human kinases (including Aurora A/B/C) (Homo sapiens, UniProt O75460) (O75460 19-977): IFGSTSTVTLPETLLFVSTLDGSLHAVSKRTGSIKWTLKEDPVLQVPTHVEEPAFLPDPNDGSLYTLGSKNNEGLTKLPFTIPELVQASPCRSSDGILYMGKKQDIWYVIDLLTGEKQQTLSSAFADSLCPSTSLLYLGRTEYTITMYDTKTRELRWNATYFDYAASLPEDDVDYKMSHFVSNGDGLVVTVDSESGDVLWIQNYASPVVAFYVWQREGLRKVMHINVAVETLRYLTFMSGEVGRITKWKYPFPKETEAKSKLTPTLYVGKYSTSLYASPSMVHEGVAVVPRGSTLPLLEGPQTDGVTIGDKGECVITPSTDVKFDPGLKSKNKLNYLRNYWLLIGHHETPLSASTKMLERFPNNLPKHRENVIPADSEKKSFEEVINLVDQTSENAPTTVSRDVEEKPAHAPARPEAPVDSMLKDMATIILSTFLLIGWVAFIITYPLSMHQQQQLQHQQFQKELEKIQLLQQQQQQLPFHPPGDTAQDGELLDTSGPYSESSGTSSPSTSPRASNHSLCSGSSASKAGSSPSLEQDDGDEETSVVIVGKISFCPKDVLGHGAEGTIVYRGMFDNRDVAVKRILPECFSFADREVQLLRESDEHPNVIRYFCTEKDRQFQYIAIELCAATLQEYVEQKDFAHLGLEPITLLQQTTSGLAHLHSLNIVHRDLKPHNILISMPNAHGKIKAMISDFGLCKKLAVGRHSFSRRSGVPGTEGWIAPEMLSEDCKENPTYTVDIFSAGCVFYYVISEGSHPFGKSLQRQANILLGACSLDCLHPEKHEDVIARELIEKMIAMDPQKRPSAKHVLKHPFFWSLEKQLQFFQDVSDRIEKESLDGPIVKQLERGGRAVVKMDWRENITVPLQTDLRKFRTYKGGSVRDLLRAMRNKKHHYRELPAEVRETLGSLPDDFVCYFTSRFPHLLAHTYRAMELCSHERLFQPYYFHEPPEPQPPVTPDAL
Chain of 363 human kinases (including Aurora A/B/C) (Homo sapiens, UniProt Q06187) (Q06187 whole entry): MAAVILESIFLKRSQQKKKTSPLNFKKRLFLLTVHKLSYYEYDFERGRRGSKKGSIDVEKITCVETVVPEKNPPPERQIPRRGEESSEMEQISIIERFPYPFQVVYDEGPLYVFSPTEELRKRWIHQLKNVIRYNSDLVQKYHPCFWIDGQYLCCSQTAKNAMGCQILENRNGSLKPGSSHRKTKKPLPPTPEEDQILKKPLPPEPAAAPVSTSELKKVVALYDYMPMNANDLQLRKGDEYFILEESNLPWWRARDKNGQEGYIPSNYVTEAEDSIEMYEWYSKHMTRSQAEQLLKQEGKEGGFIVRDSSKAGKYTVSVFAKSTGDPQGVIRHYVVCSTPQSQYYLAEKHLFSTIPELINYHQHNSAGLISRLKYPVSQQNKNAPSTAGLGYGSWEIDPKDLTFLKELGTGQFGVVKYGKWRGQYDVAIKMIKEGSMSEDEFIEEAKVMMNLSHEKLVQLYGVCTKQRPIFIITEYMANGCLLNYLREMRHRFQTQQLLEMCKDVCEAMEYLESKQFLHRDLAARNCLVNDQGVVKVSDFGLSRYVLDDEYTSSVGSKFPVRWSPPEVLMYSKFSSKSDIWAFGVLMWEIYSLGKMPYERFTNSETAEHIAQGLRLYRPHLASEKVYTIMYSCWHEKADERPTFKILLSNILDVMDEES
Chain of 363 human kinases (including Aurora A/B/C) (Homo sapiens, UniProt P37173) (P37173 23-567): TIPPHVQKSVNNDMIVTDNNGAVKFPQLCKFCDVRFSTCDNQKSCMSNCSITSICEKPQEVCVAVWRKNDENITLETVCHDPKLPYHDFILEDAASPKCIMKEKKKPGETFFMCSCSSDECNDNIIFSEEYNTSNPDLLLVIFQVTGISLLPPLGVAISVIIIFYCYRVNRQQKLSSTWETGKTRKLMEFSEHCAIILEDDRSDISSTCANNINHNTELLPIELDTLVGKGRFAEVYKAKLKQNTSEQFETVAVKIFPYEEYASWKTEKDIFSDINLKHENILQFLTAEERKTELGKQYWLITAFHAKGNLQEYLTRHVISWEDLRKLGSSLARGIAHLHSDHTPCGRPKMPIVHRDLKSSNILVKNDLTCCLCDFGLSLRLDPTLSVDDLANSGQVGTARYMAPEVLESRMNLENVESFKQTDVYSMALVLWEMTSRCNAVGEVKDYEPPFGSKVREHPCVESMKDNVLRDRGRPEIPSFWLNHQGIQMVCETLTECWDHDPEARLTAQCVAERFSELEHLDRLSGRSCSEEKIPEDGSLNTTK
Chain of 363 human kinases (including Aurora A/B/C) (Homo sapiens, UniProt O94921) (O94921 whole entry): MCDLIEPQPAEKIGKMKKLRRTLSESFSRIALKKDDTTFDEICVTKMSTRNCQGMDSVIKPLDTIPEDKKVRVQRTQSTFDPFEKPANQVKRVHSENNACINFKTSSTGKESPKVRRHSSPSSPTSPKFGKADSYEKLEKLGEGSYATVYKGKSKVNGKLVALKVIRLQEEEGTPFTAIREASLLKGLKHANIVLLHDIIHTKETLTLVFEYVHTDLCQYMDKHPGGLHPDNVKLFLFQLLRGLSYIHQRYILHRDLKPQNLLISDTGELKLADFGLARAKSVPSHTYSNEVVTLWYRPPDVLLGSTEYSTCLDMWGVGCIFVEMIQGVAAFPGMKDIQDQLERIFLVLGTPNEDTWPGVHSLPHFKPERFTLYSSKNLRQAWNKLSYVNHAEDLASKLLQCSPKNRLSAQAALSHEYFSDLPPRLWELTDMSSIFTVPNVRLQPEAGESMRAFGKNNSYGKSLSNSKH
Chain of 363 human kinases (including Aurora A/B/C) (Homo sapiens, UniProt P43250) (P43250 whole entry): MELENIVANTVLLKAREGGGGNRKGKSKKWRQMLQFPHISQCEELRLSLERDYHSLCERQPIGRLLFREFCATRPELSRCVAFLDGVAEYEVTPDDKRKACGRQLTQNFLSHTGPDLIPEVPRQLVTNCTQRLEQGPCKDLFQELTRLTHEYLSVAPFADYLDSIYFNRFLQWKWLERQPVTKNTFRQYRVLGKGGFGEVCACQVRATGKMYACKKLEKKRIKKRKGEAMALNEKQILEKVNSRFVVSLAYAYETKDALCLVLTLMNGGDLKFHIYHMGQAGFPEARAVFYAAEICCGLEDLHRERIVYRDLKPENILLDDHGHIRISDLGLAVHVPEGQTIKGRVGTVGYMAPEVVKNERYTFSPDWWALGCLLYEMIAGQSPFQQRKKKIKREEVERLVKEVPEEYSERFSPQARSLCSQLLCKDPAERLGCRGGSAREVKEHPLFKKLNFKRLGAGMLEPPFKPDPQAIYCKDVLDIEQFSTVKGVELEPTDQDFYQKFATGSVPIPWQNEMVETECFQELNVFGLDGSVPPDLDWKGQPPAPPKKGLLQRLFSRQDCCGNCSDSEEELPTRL

`CCn1cc(-c2ccnc3[nH]c(-c4cccc(CN(C)C)c4)cc23)c(-c2ccc(NC(=O)N(C)C)cc2)n1` [GSK1070916] was tested, and the remaining activity at 0.1 µM [1] was 108%, the remaining activity at 0.1 µM [2] was 102% and the remaining activity at 0.1 µM [3] was 82.3%. For the same molecule, the remaining activity at 0.1 µM [4] was 101%, the remaining activity at 0.1 µM [5] was 121% and the remaining activity at 0.1 µM [6] was 96%. It also gave a remaining activity at 0.1 µM [7] of 97.6%, a remaining activity at 0.1 µM [8] of 95.9% and a remaining activity at 0.1 µM [9] of 95.4%. For the same molecule, the remaining activity at 0.1 µM [10] was 113%, the remaining activity at 0.1 µM [11] was 95.5% and the remaining activity at 0.1 µM [12] was 106%. It also gave a remaining activity at 0.1 µM [13] of 77.7% and a remaining activity at 0.1 µM [14] of 60.2%.

Molecule `O=C(O)[C@]1(Cc2cccc(Nc3nccs3)n2)CC[C@@H](Oc2cccc(Cl)c2F)CC1` [MK-5108] has a remaining activity at 0.1 µM [1] of 102%, a remaining activity at 0.5 µM ([1]; 500 nM) of 103% and a remaining activity at 0.1 µM [2] of 69.8%. For the same molecule, the remaining activity at 0.5 µM ([2]; 500 nM) was 30.2%, the remaining activity at 0.1 µM [3] was 93.7% and the remaining activity at 0.5 µM ([3]; 500 nM) was 63%. It also gave a remaining activity at 0.1 µM [4] of 99.8%, a remaining activity at 0.5 µM ([4]; 500 nM) of 102% and a remaining activity at 0.1 µM [5] of 92.6%. For the same molecule, the remaining activity at 0.5 µM ([5]; 500 nM) was 86.3%, the remaining activity at 0.1 µM [6] was 87.2% and the remaining activity at 0.5 µM ([6]; 500 nM) was 92.2%. It also gave a remaining activity at 0.1 µM [7] of 95.3%, a remaining activity at 0.5 µM ([7]; 500 nM) of 95.4% and a remaining activity at 0.1 µM [8] of 106%. For the same molecule, the remaining activity at 0.5 µM ([8]; 500 nM) was 88.8%, the remaining activity at 0.1 µM [9] was 99.5% and the remaining activity at 0.5 µM ([9]; 500 nM) was 101%. It also gave a remaining activity at 0.1 µM [10] of 105%, a remaining activity at 0.5 µM ([10]; 500 nM) of 116% and a remaining activity at 0.1 µM [11] of 100%. The remaining activity at 0.5 µM ([11]; 500 nM) was 96.4%, the remaining activity at 0.1 µM [12] was 104% and the remaining activity at 0.5 µM ([12]; 500 nM) was 101%. For the same molecule, the remaining activity at 0.1 µM [13] was 86.5%, the remaining activity at 0.5 µM ([13]; 500 nM) was 73.9% and the remaining activity at 0.1 µM ([14]; FGFR1, [ATP] 5 µM, 100 nM) was 61.8%. The remaining activity at 0.5 µM ([14]; FGFR1, [ATP] 5 µM, 500 nM) was 30.8%.

In the case of `O=C(c1cccc(Cl)c1F)N1CCN(Cc2cccc(Nc3nccs3)n2)CC1` [MK-8745], the “% Enzyme Activity (relative to DMSO controls)” value ([1]; 500 nM) is reported as 102.17%, the remaining activity at 0.5 µM ([1]; 500 nM) is reported as 104% and the “% Enzyme Activity (relative to DMSO controls)” value ([2]; 500 nM) is reported as 94.23%. The remaining activity at 0.5 µM ([2]; 500 nM) was 94.5%, the “% Enzyme Activity (relative to DMSO controls)” value ([3]; 500 nM) was 90.37% and the remaining activity at 0.5 µM ([3]; 500 nM) was 91.9%. The “% Enzyme Activity (relative to DMSO controls)” value ([4]; 500 nM) was 98.74%, the remaining activity at 0.5 µM ([4]; 500 nM) was 98.9% and the “% Enzyme Activity (relative to DMSO controls)” value ([5]; 500 nM) was 108.29%. For the same molecule, the remaining activity at 0.5 µM ([5]; 500 nM) was 109%, the “% Enzyme Activity (relative to DMSO controls)” value ([6]; 500 nM) was 92.33% and the remaining activity at 0.5 µM ([6]; 500 nM) was 92.3%. The “% Enzyme Activity (relative to DMSO controls)” value ([7]; 500 nM) was 88.71%, the remaining activity at 0.5 µM ([7]; 500 nM) was 89% and the “% Enzyme Activity (relative to DMSO controls)” value ([8]; 500 nM) was 88.65%. The remaining activity at 0.5 µM ([8]; 500 nM) was 89.3%, the “% Enzyme Activity (relative to DMSO controls)” value ([9]; 500 nM) was 95.34% and the remaining activity at 0.5 µM ([9]; 500 nM) was 98%. The “% Enzyme Activity (relative to DMSO controls)” value ([10]; 500 nM) was 107.37%, the remaining activity at 0.5 µM ([10]; 500 nM) was 107% and the “% Enzyme Activity (relative to DMSO controls)” value ([11]; 500 nM) was 96.39%. The remaining activity at 0.5 µM ([11]; 500 nM) was 98.9%, the “% Enzyme Activity (relative to DMSO controls)” value ([12]; 500 nM) was 98.74% and the remaining activity at 0.5 µM ([12]; 500 nM) was 100%. The “% Enzyme Activity (relative to DMSO controls)” value ([13]; 500 nM) was 75.49%, the remaining activity at 0.5 µM ([13]; 500 nM) was 76.6% and the “% Enzyme Activity (relative to DMSO controls)” value ([14]; FGFR1, [ATP] 5 µM, 500 nM) was 93.82%. For the same molecule, the remaining activity at 0.5 µM ([14]; FGFR1, [ATP] 5 µM, 500 nM) was 97.1%.
